{"source": "ChEMBL document CHEMBL3885881", "about": "“DrugMatrix”", "species_on_record": "Rattus norvegicus", "experiment": "DrugMatrix - Regimen: Daily Repeat", "format": "toxicity, organism-based, Sprague-Dawley", "set-up": "regimen Daily Repeat, gender Male, age 6-8 weeks", "settings": "in vivo, po, 75 mg/kg, route oral GAVAGE, dose level High, vehicle .5 % CMC; for ABSOLUTE BASOPHIL / ABSOLUTE EOSINOPHIL / ABSOLUTE LYMPHOCYTE / ABSOLUTE MONOCYTE / ABSOLUTE SEGMENTED NEUTROPHIL / BASOPHIL / EOSINOPHIL / ERYTHROCYTE COUNT / HEMATOCRIT / HEMOGLOBIN / LEUKOCYTE COUNT / LYMPHOCYTE / MEAN CORPUSCULAR HEMOGLOBIN / MEAN CORPUSCULAR HEMOGLOBIN CONCENTRATION / MEAN CORPUSCULAR VOLUME / MONOCYTE / NEUTROPHIL / NUCLEATED RED BLOOD CELLS / PLATELET COUNT: tissue Blood", "key": {"[1]": {"settings": "72 h, tissue Plasma, time 3 day"}, "[2]": {"settings": "120 h, tissue Plasma, time 5 day"}}}
{"smiles": "COc1ccc(C2CNC(=O)C2)cc1OC1CCCC1", "note": "(stereo not drawn) [ROLIPRAM]", "values": [{"measurement": "ABSOLUTE BASOPHIL", "setting": "72 h, time 3 day", "result": 0, "unit": "CELLS/uL"}, {"measurement": "ABSOLUTE EOSINOPHIL", "setting": "72 h, time 3 day", "result": 174, "unit": "CELLS/uL"}, {"measurement": "ABSOLUTE LYMPHOCYTE", "setting": "72 h, time 3 day", "result": 10500, "unit": "CELLS/uL"}, {"measurement": "ABSOLUTE MONOCYTE", "setting": "72 h, time 3 day", "result": 432, "unit": "CELLS/uL"}, {"measurement": "ABSOLUTE SEGMENTED NEUTROPHIL", "setting": "72 h, time 3 day", "result": 3427.33, "unit": "CELLS/uL"}, {"measurement": "BASOPHIL", "setting": "72 h, time 3 day", "result": 0, "unit": "%"}, {"measurement": "EOSINOPHIL", "setting": "72 h, time 3 day", "result": 1, "unit": "%"}, {"measurement": "ERYTHROCYTE COUNT", "setting": "72 h, time 3 day", "result": 6.02, "unit": "x10E6/uL"}, {"measurement": "HEMATOCRIT", "setting": "72 h, time 3 day", "result": 37.7, "unit": "%"}, {"measurement": "HEMOGLOBIN", "setting": "72 h, time 3 day", "result": 13.93, "unit": "G/DL"}, {"measurement": "LEUKOCYTE COUNT", "setting": "72 h, time 3 day", "result": 14.53, "unit": "x10E3/uL"}, {"measurement": "LYMPHOCYTE", "setting": "72 h, time 3 day", "result": 73.33, "unit": "%"}, {"measurement": "MEAN CORPUSCULAR HEMOGLOBIN", "setting": "72 h, time 3 day", "result": 23.2, "unit": "pg"}, {"measurement": "MEAN CORPUSCULAR HEMOGLOBIN CONCENTRATION", "setting": "72 h, time 3 day", "result": 36.97, "unit": "G/DL"}, {"measurement": "MEAN CORPUSCULAR VOLUME", "setting": "72 h, time 3 day", "result": 62.73, "unit": "fL"}, {"measurement": "MONOCYTE", "setting": "72 h, time 3 day", "result": 2.67, "unit": "%"}, {"measurement": "NEUTROPHIL", "setting": "72 h, time 3 day", "result": 23, "unit": "%"}, {"measurement": "NUCLEATED RED BLOOD CELLS", "setting": "72 h, time 3 day", "result": "0 /100WBC"}, {"measurement": "PLATELET COUNT", "setting": "72 h, time 3 day", "result": 1088.33, "unit": "x10E3/uL"}, {"measurement": "ALANINE AMINOTRANSFERASE", "setting": "[1]", "result": 60.33, "unit": "u/L"}, {"measurement": "ALBUMIN", "setting": "[1]", "result": 4.3, "unit": "G/DL"}, {"measurement": "ALKALINE PHOSPHATASE", "setting": "[1]", "result": 331.67, "unit": "u/L"}, {"measurement": "ASPARTATE AMINOTRANSFERASE", "setting": "[1]", "result": 73.33, "unit": "u/L"}, {"measurement": "BLOOD UREA NITROGEN", "setting": "[1]", "result": 14.67, "unit": "mg/dL"}, {"measurement": "CARBON DIOXIDE", "setting": "[1]", "result": 28, "unit": "mmol/L"}, {"measurement": "CHLORIDE", "setting": "[1]", "result": 104, "unit": "MEQ/L"}, {"measurement": "CHOLESTEROL", "setting": "[1]", "result": 63.33, "unit": "mg/dL"}, {"measurement": "CREATININE", "setting": "[1]", "result": 0.17, "unit": "mg/dL"}, {"measurement": "GLUCOSE", "setting": "[1]", "result": 170.67, "unit": "mg/dL"}, {"measurement": "LACTATE DEHYDROGENASE", "setting": "[1]", "result": 116, "unit": "u/L"}, {"measurement": "LIPASE", "setting": "[1]", "result": 10, "unit": "u/L"}, {"measurement": "PHOSPHORUS", "setting": "[1]", "result": 11, "unit": "mg/dL"}, {"measurement": "POTASSIUM", "setting": "[1]", "result": 6.1, "unit": "MEQ/L"}, {"measurement": "SODIUM", "setting": "[1]", "result": 147.83, "unit": "MEQ/L"}, {"measurement": "TOTAL BILIRUBIN", "setting": "[1]", "result": 0.1, "unit": "mg/dL"}, {"measurement": "TOTAL PROTEIN", "setting": "[1]", "result": 6.23, "unit": "G/DL"}, {"measurement": "URIC ACID", "setting": "[1]", "result": 1.73, "unit": "mg/dL"}, {"measurement": "ABSOLUTE BASOPHIL", "setting": "120 h, time 5 day", "result": 0, "unit": "CELLS/uL"}, {"measurement": "ABSOLUTE EOSINOPHIL", "setting": "120 h, time 5 day", "result": 142.67, "unit": "CELLS/uL"}, {"measurement": "ABSOLUTE LYMPHOCYTE", "setting": "120 h, time 5 day", "result": 8076.67, "unit": "CELLS/uL"}, {"measurement": "ABSOLUTE MONOCYTE", "setting": "120 h, time 5 day", "result": 387, "unit": "CELLS/uL"}, {"measurement": "ABSOLUTE SEGMENTED NEUTROPHIL", "setting": "120 h, time 5 day", "result": 1493.67, "unit": "CELLS/uL"}, {"measurement": "BASOPHIL", "setting": "120 h, time 5 day", "result": 0, "unit": "%"}, {"measurement": "EOSINOPHIL", "setting": "120 h, time 5 day", "result": 1.33, "unit": "%"}, {"measurement": "ERYTHROCYTE COUNT", "setting": "120 h, time 5 day", "result": 6.66, "unit": "x10E6/uL"}, {"measurement": "HEMATOCRIT", "setting": "120 h, time 5 day", "result": 40, "unit": "%"}, {"measurement": "HEMOGLOBIN", "setting": "120 h, time 5 day", "result": 14.37, "unit": "G/DL"}, {"measurement": "LEUKOCYTE COUNT", "setting": "120 h, time 5 day", "result": 10.1, "unit": "x10E3/uL"}, {"measurement": "LYMPHOCYTE", "setting": "120 h, time 5 day", "result": 81.33, "unit": "%"}, {"measurement": "MEAN CORPUSCULAR HEMOGLOBIN", "setting": "120 h, time 5 day", "result": 21.6, "unit": "pg"}, {"measurement": "MEAN CORPUSCULAR HEMOGLOBIN CONCENTRATION", "setting": "120 h, time 5 day", "result": 35.93, "unit": "G/DL"}, {"measurement": "MEAN CORPUSCULAR VOLUME", "setting": "120 h, time 5 day", "result": 60.07, "unit": "fL"}, {"measurement": "MONOCYTE", "setting": "120 h, time 5 day", "result": 3.67, "unit": "%"}, {"measurement": "NEUTROPHIL", "setting": "120 h, time 5 day", "result": 13.67, "unit": "%"}, {"measurement": "NUCLEATED RED BLOOD CELLS", "setting": "120 h, time 5 day", "result": "0 /100WBC"}, {"measurement": "PLATELET COUNT", "setting": "120 h, time 5 day", "result": 1039, "unit": "x10E3/uL"}, {"measurement": "ALANINE AMINOTRANSFERASE", "setting": "[2]", "result": 69.67, "unit": "u/L"}, {"measurement": "ALBUMIN", "setting": "[2]", "result": 4.5, "unit": "G/DL"}, {"measurement": "ALKALINE PHOSPHATASE", "setting": "[2]", "result": 284.67, "unit": "u/L"}, {"measurement": "ASPARTATE AMINOTRANSFERASE", "setting": "[2]", "result": 99.67, "unit": "u/L"}, {"measurement": "BLOOD UREA NITROGEN", "setting": "[2]", "result": 15.33, "unit": "mg/dL"}, {"measurement": "CARBON DIOXIDE", "setting": "[2]", "result": 34.33, "unit": "mmol/L"}, {"measurement": "CHLORIDE", "setting": "[2]", "result": 101.67, "unit": "MEQ/L"}, {"measurement": "CHOLESTEROL", "setting": "[2]", "result": 82.67, "unit": "mg/dL"}, {"measurement": "CREATININE", "setting": "[2]", "result": 0.18, "unit": "mg/dL"}, {"measurement": "GLUCOSE", "setting": "[2]", "result": 127, "unit": "mg/dL"}, {"measurement": "LACTATE DEHYDROGENASE", "setting": "[2]", "result": 138.67, "unit": "u/L"}, {"measurement": "LIPASE", "setting": "[2]", "result": 8.67, "unit": "u/L"}, {"measurement": "PHOSPHORUS", "setting": "[2]", "result": 9.93, "unit": "mg/dL"}, {"measurement": "POTASSIUM", "setting": "[2]", "result": 6.21, "unit": "MEQ/L"}, {"measurement": "SODIUM", "setting": "[2]", "result": 149.7, "unit": "MEQ/L"}, {"measurement": "TOTAL BILIRUBIN", "setting": "[2]", "result": 0.13, "unit": "mg/dL"}, {"measurement": "TOTAL PROTEIN", "setting": "[2]", "result": 6.8, "unit": "G/DL"}]}
